Series [1] is described as follows: Malonic acid solubility in water at various temperatures. Particulars: 65° C. In kind it is physicochemical.
Series [2] can be described thus: Thermal stability of malonic acid (decarboxylation to acetic acid). In kind it is physicochemical.

Structures are written as SMILES.

Take `O=C(O)CC(=O)O` [malonic acid, propanedioic acid]: the “solubility limit of malonic acid” value in series [1] is recorded as 76 % wt/wt. In series [2], the “temperature at which malonic acid decarboxylates to form acetic acid” value is “approximately 80 °C”. Besides, in series [2] (under acidic conditions), the “temperature at which malonic acid begins to rapidly decompose” value was “about 80 °C”.

The values are drawn from patent publication US11326191B2 (LYGOS, INC., priority 2016, dated 2022).
